In US20220380829A1, “Method of Diagonosizing Pathogens and their Antimicrobial Susceptibility” (HANGZHOU DIAN MEDICAL LABORATORY CO., LTD., priority 2019, published 2022):
Starred links: 1 amine or outer side, 2 acyl side, 3 side chain; linkers in the order of their positions; H or OH if unused. Positions of bridges follow the written chain, without caps; N, C: chain ends. Non-standard residues stand in square brackets, D forms with d. Residues, ends and D or L forms follow the SMILES beside them. *: point of attachment. hTyr(3S-OH,4S-OH,3'-OSO3H) = N[C@H](C(=O)O)[C@H](O)[C@@H](O)c1ccc(O)c(OS(=O)(=O)O)c1; Orn(4R-OH,5R-OH) = O=C([C@H](C[C@@H](O)[C@@H](O)N[*:3])N[*:1])[*:2]; Pro(3S-OH,4S-Me) = C[C@H]1CN[C@H](C(=O)O)[C@H]1O; X1 = CCCCCOc1ccc(-c2cc(-c3ccc(C(=O)*)cc3)no2)cc1; Gln(3R-OH) = NC(=O)C[C@@H](O)[C@H](N)C(=O)O; Hyp = O=C(O)[C@@H]1C[C@@H](O)CN1

Experiments:
Assay type in all cases: cell-based
Candida albicans = experiment: Broth microdilution (M27-A3, M27-S4), gold standard culture-based AST; conditions: for Results by broth microdilution method: R: number of resistant among 12 blinds; for Results by broth microdilution method: S: number of susceptible among 12 blinds
Procedure: Step 1. Sample collection and drug susceptibility verification: 120 clinical Candida albicans isolates were collected from 31 hospitals across china in a period between September 2015 and January 2019. All isolates were tested for drug susceptibility using broth microdilution method following the M27-A3 and M27-S4 guidelines of NCCLS, and the results were used as the gold standard (culture-based AST).

Klebsiella pneumoniae = experiment: VITEK2 Compact AST (AST-GN13/GN334 cards), gold standard culture-based AST; conditions: for Resistance profiles by VITEK2: R: number of resistant among 24 blinds; for Resistance profiles by VITEK2: S: number of susceptible among 24 blinds
Source text: Step 1. Sample collection and drug susceptibility verification: 240 clinical Klebsiella pneumoniae isolates were collected from 23 hospitals across china in a period between January 2018 and March 2019.

Staphylococcus aureus = experiment: VITEK2 Compact AST (AST-P639 card), gold standard culture-based AST; conditions: for Resistance profiles by VITEK2: R: number of resistant among 22 blinds; for Resistance profiles by VITEK2: S: number of susceptible among 22 blinds
Procedure: Step 1. Sample collection and drug susceptibility verification: 160 clinical Staphylococcus aureus isolates were collected from 20 hospitals across china in a period between June 2018 and June 2019. All isolates were tested for drug susceptibility using bioMérieux Vitek2 Compact System and AST-P639 card, and specifically, and the results were used as the gold standard (culture-based AST).

Enterococcus faecalis = experiment: VITEK2 Compact AST (AST-P639 cards), gold standard culture-based AST
Streptococcus pneumoniae = experiment: VITEK2 Compact AST (AST-GP68 cards) with penicillin disc diffusion, gold standard culture-based AST
Procedure: (§1) Step 1. Drug susceptibility verification: The Streptococcus pneumoniae isolates were tested for drug susceptibility using bioMérieux Vitek2 Compact System and AST-GP68 cards, and specifically, the susceptibility of penicillin was double checked by disc diffusion method (OXOID, CT0043B), and the combined results were used as the gold standard (culture-based AST).
as §1, with “Sample collection and drug” for “Drug”, “48 clinical” for “The”, “pneumoniae isolates were collected from 18 hospitals across china in a period between May 2017 and October 2019. All” for “pneumoniae”, “card,” for “cards,”

[1] = Resistance profile classification A
[2] = Resistance profile classification B
[3] = Resistance profile classification C
[4] = Resistance profile classification D
[5] = Resistance profile classification G
[6] = Resistance profile classification H
[7] = Resistance profile classification I
[8] = Resistance profile classification J
[9] = Resistance profile classification S

C[C@@H]1[C@H](O)[C@@H](C)/C=C/C=C/C=C/C=C/C=C/C=C/C=C/[C@H](O[C@@H]2O[C@H](C)[C@@H](O)[C@H](N)[C@@H]2O)C[C@@H]2O[C@](O)(C[C@@H](O)C[C@@H](O)[C@H](O)CC[C@@H](O)C[C@@H](O)CC(=O)O[C@H]1C)C[C@H](O)[C@H]2C(=O)O [Amphotericin B]
Results by broth microdilution method: R (Candida albicans): 0 | Results by broth microdilution method: S (Candida albicans): 12

CC[C@H](C)C[C@H](C)CCCCCCCCC(=O)N[C@H]1C[C@@H](O)[C@@H](NCCN)NC(=O)[C@@H]2[C@@H](O)CCN2C(=O)[C@H]([C@H](O)CCN)NC(=O)[C@H]([C@H](O)[C@@H](O)c2ccc(O)cc2)NC(=O)[C@@H]2C[C@@H](O)CN2C(=O)[C@H]([C@@H](C)O)NC1=O [Caspofungin]
Results by broth microdilution method: R (Candida albicans): 0 | Results by broth microdilution method: S (Candida albicans): 12

OC(Cn1cncn1)(Cn1cncn1)c1ccc(F)cc1F [Fluconazole]
Results by broth microdilution method: R (Candida albicans): 2 | Results by broth microdilution method: S (Candida albicans): 10

CCC(C)n1ncn(-c2ccc(N3CCN(c4ccc(OCC5COC(Cn6cncn6)(c6ccc(Cl)cc6Cl)O5)cc4)CC3)cc2)c1=O (stereo not shown) [Itraconazole]
Results by broth microdilution method: R (Candida albicans): 2 | Results by broth microdilution method: S (Candida albicans): 10

CCCCCOc1ccc(-c2cc(-c3ccc(C(=O)N[C@H]4C[C@@H](O)[C@@H](O)NC(=O)[C@@H]5[C@@H](O)[C@@H](C)CN5C(=O)[C@H]([C@H](O)CC(N)=O)NC(=O)[C@H]([C@H](O)[C@@H](O)c5ccc(O)c(OS(=O)(=O)O)c5)NC(=O)[C@@H]5C[C@@H](O)CN5C(=O)[C@H]([C@@H](C)O)NC4=O)cc3)no2)cc1 [Micafungin] (X1-[Orn(4R-OH,5R-OH)]T[Hyp][hTyr(3S-OH,4S-OH,3'-OSO3H)][Gln(3R-OH)][Pro(3S-OH,4S-Me)]; lactam 1-C)
Results by broth microdilution method: R (Candida albicans): 0 | Results by broth microdilution method: S (Candida albicans): 12

C[C@@H](c1ncncc1F)[C@](O)(Cn1cncn1)c1ccc(F)cc1F [Voriconazole]
Results by broth microdilution method: R (Candida albicans): 2 | Results by broth microdilution method: S (Candida albicans): 10

Amoxicillin-clavulanate
Resistance profiles by VITEK2: R (Klebsiella pneumoniae): 16 | Resistance profiles by VITEK2: S (Klebsiella pneumoniae): 8

Ampicillin-sulbactam
Resistance profiles by VITEK2: R (Klebsiella pneumoniae): 15 | Resistance profiles by VITEK2: S (Klebsiella pneumoniae): 9

Cefoperazone-sulbactam
Resistance profiles by VITEK2: R (Klebsiella pneumoniae): 13 | Resistance profiles by VITEK2: S (Klebsiella pneumoniae): 11

Gentamicin
Resistance profiles by VITEK2: R (Klebsiella pneumoniae): 12 | Resistance profiles by VITEK2: S (Klebsiella pneumoniae): 12 | Resistance profiles by VITEK2: R (Staphylococcus aureus): 7 | Resistance profiles by VITEK2: S (Staphylococcus aureus): 15

Piperacillin-tazobactam
Resistance profiles by VITEK2: R (Klebsiella pneumoniae): 13 | Resistance profiles by VITEK2: S (Klebsiella pneumoniae): 11

Teicoplanin
Resistance profiles by VITEK2: R (Staphylococcus aureus): 0 | Resistance profiles by VITEK2: S (Staphylococcus aureus): 22

penicillin
Susceptibility of Emterococcus faecalis to 11 antibacterial drugs (Enterococcus faecalis; [1]): R | Susceptibility of Emterococcus faecalis to 11 antibacterial drugs (Enterococcus faecalis; [2]): R | Susceptibility of Emterococcus faecalis to 11 antibacterial drugs (Enterococcus faecalis; [3]): R | Susceptibility of Emterococcus faecalis to 11 antibacterial drugs (Enterococcus faecalis; [4]): R | Susceptibility of Emterococcus faecalis to 11 antibacterial drugs (Enterococcus faecalis; Resistance profile classification F (first line so labelled, r12)): R | Susceptibility of Emterococcus faecalis to 11 antibacterial drugs (Enterococcus faecalis; Resistance profile classification F (second line so labelled, r13)): R | Susceptibility of Emterococcus faecalis to 11 antibacterial drugs (Enterococcus faecalis; [5]): S | Susceptibility of Emterococcus faecalis to 11 antibacterial drugs (Enterococcus faecalis; [6]): S | Susceptibility of Emterococcus faecalis to 11 antibacterial drugs (Enterococcus faecalis; [7]): S | Susceptibility of Emterococcus faecalis to 11 antibacterial drugs (Enterococcus faecalis; [8]): S | Susceptibility of Emterococcus faecalis to 11 antibacterial drugs (Enterococcus faecalis; Resistance profile classification K): S | Susceptibility of Emterococcus faecalis to 11 antibacterial drugs (Enterococcus faecalis; Resistance profile classification L): S | Susceptibility of Emterococcus faecalis to 11 antibacterial drugs (Enterococcus faecalis; Resistance profile classification M): S | Susceptibility of Emterococcus faecalis to 11 antibacterial drugs (Enterococcus faecalis; [9]): S | Blind 1 by AST (Streptococcus pneumoniae; Blind 1): S | Susceptibility of Streptococcus pneumoniae to 14 antibacterial drugs (Streptococcus pneumoniae; [1]): R | Susceptibility of Streptococcus pneumoniae to 14 antibacterial drugs (Streptococcus pneumoniae; [2]): R | Susceptibility of Streptococcus pneumoniae to 14 antibacterial drugs (Streptococcus pneumoniae; [3]): R | Susceptibility of Streptococcus pneumoniae to 14 antibacterial drugs (Streptococcus pneumoniae; [4]): R | Susceptibility of Streptococcus pneumoniae to 14 antibacterial drugs (Streptococcus pneumoniae; Resistance profile classification E): R | Susceptibility of Streptococcus pneumoniae to 14 antibacterial drugs (Streptococcus pneumoniae; Resistance profile classification F): R | Susceptibility of Streptococcus pneumoniae to 14 antibacterial drugs (Streptococcus pneumoniae; [5]): S | Susceptibility of Streptococcus pneumoniae to 14 antibacterial drugs (Streptococcus pneumoniae; [6]): S | Susceptibility of Streptococcus pneumoniae to 14 antibacterial drugs (Streptococcus pneumoniae; [7]): S | Susceptibility of Streptococcus pneumoniae to 14 antibacterial drugs (Streptococcus pneumoniae; [8]): S | Susceptibility of Streptococcus pneumoniae to 14 antibacterial drugs (Streptococcus pneumoniae; [9]): S | blind 2 by AST (Streptococcus pneumoniae; blind 2): R | Resistance profiles by VITEK2: R (Staphylococcus aureus): 20 | Resistance profiles by VITEK2: S (Staphylococcus aureus): 2
